# Target: T1, OhpA (Cupriavidus pinatubonensis, UniProt Q46QG0)
# T1 construct: gene Reut_B5278; full length, 783 aa, untagged as far as told; pBS1-ohpA (PBAD) expressed in Pseudomonas putida KT2440, assayed in cell extract
# T1 sequence (Q46QG0 1-783): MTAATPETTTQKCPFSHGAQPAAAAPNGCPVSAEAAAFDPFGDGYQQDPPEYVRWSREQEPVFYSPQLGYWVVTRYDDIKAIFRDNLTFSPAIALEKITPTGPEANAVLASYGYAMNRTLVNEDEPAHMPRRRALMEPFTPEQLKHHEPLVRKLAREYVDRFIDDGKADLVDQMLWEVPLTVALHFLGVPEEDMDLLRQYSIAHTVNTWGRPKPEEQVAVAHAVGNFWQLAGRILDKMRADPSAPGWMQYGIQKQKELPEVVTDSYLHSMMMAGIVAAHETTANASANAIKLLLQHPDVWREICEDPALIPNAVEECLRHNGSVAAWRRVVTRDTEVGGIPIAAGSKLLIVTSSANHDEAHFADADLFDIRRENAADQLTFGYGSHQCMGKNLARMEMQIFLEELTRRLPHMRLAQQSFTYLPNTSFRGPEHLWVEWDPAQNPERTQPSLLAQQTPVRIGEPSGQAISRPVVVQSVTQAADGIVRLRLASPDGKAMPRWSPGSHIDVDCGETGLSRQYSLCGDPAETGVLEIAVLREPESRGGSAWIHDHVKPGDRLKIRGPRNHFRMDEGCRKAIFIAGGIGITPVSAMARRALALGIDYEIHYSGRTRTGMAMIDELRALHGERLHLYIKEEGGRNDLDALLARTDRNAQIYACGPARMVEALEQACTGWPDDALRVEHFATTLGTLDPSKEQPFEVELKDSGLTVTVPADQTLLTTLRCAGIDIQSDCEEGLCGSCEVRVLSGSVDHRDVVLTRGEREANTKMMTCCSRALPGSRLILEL
# Assay: substrate-dependent NADH oxidation at […] nm in extract of P. putida KT2440 pBS1-ohpA
# Format: biochemical
# Conditions: 0.2 mM NADH, 100 uM 2-HPA, 1 uM FAD, 35 mM Tris/acetate pH 7.5
smiles,measurement,value
NC(=O)C1=CN([C@@H]2O[C@H](COP(=O)(O)OP(=O)(O)OC[C@H]3O[C@@H](n4cnc5c(N)ncnc54)[C@H](O)[C@@H]3O)[C@@H](O)[C@H]2O)C=CC1 [NADH],substrate-dependent NADH oxidation at 340 nm in extract of P. putida KT2440 pBS1,we assayed the substrate‐dependent NADH oxidation in cell extracts of P. putida KT2440 harbouring pBS1‐ohpA

# From paper PMC8449657, “Identification of a self‐sufficient cytochrome P450 monooxygenase from Cupriavidus pinatubonensis JMP134 involved in 2‐hydroxyphenylacetic acid catabolism, via homogentisate pathway” (Microbial Biotechnology, 2021)
